Columns and labels:
[1] = tested on: ROS; assay: Measurement of ROS levels (c-H2DCFDA, flow cytometry); format: cell-based, human; details: NAC for 30 mins
Method: Measurement of ROS levels: Cells were incubated with 10 μM c-H2DCFDA (molecular probes, Invitrogen, CA) for 30 mins at 37° C. to assess the ROS mediated oxidation to the fluorescent compound c-H2DCF. Fluorescence of oxidized c-H2DCF was measured at an excitation wavelength of 480 nm and an emission wavelength of 525 nm using a FAC Scan flow cytometer (Becton Dickinson).

[2] = tested on: A549 cells; assay: Clonogenic survival after ionizing radiation, A549; format: cell-based, human; details: A549-NRF2 shRNA cells
Method: (§1) Clonogenic assays: Exponentially growing cells were counted, diluted and seeded in triplicate at 1000 cells per culture dish (100 mm). Cells were incubated for 24 h in a humidified CO2 incubator at 37° C., exposed to high dose rate (0.68Gy/min) radiation using a Gamma cell 40 ^137Cs irradiator (Atomic Energy of Canada, Ltd). To assess clonogenic survival following radiation exposure, cell cultures were incubated in complete growth medium at 37° C. for 14 days and then stained with 50% methanol-crystal violet solution. Only colonies with more than 50 cells were counted, and the surviving fraction was calculated and compared to the control.

[3] = tested on: H460 cells; assay: Clonogenic survival after ionizing radiation, H460; format: cell-based, human; details: H460-NRF2 shRNA cells
Method: as §1

[4] = tested on: A549 cells; assay: A549 subcutaneous tumor xenograft, intratumoral siRNA with or without carboplatin/radiation; format: in vivo, athymic nude mice
Method: Tumor Xenografts and siRNA Treatment: We injected A549 cells (5×10^6) and H460 cells (2×10^6) subcutaneously into the hind leg of male athymic nude mice and measured the tumor dimensions by caliper once per week. The tumor volumes were calculated using the following formula: [length (mm)×width (mm)×width (mm)×0.52]. For in vivo delivery of siRNA into tumors, siRNA duplexes diluted in PBS were injected into the tumors using insulin syringes at a concentration of 10 μg of siRNA/50 mm^3 of tumor volume. Intraperitoneal injections of carboplatin were given at a dose of 40 mg/kg body weight. Both siRNA and carboplatin were administered twice weekly for 4 weeks. Upon termination, tumors were harvested and weighted. For radiation exposure, mice with subcutaneous tumors were exposed to high dose rate radiation (2 dose of 3Gy each) using a Gamma cell 40 ^137Cs irradiator (Atomic Energy of Canada, Ltd).
Statistical Analysis—Statistical comparisons were performed by Student's t-tests or Wilcoxon rank-sum test. A value of p<0.05 was considered statistically significant. Tumor weights and changes in tumor volume were summarized using descriptive statistics. Differences in tumor measures between treatment groups were examined using linear regression models with generalized estimating equations (GEE). The distributions of both tumor measurements were skewed, so log transformations were used.

[5] = tested on: A549-C8-luc cells; assay: Orthotopic A549-C8-luc lung tumor model, inhaled siRNA with or without carboplatin; format: in vivo, SCID-Beige mice; details: carboplatin 30 mg/kg i.p. twice/week, 4 weeks
Method: Experimental Lung Metastasis: In experimental metastasis experiments, 2×10^6 A549-C8-luc cells were injected into SCID-Beige mice (Charles River, Mass.) intravenously. For delivery of siRNA into lung tumors, 100 μg of siRNA duplex diluted in PBS was aerosolized using a nebulizer. Mice were given three doses of siRNA (100 μg/dose) every week, for 4 weeks, using a nebulizer. Intraperitoneal injections of carboplatin were given at a dose of 30 mg/kg body weight twice/week. All experimental animal protocols were performed in accordance with guidelines approved by the animal care committee at the Johns Hopkins University Bloomberg School of Public Health.
In Vivo Imaging: For luminescent imaging, animals inoculated with A549-C8-luc cells, which express a luciferase reporter gene, were anesthetized and injected intraperitoneally with 250 ul of luminescent substrate (15 mg/ml stock) D-Luciferin Firefly (Xenogen Cat# XR-1001). The animals were then imaged and analyzed by using the Xenogen IVIS Optical Imaging Device in the Johns Hopkins Oncology Center.

SMILES	reduction of ROS production / mean fluorescent intensity ([1]; A549-NRF2shRNA cells) [%]	reduction of ROS production / mean fluorescent intensity ([1]; H460-NRF2shRNA cells) [%]	cell survival after radiation with NAC pretreatment [2]	cell survival after radiation with NAC pretreatment [3]	ratio of differences in change in tumor volume, siRNA+carboplatin vs siRNA ([4]; experiment 1)	ratio of tumor weights, siRNA vs siRNA+carboplatin treated tumors ([4]; experiment 1, carboplatin 40 mg/kg i.p. twice weekly)	ratio of differences in change in tumor volume, siRNA+carboplatin vs siRNA+radiation ([4]; experiment 1, not significant)	ratio of tumor weights, siRNA+carboplatin vs siRNA treated tumors ([4]; second experiment)	ratio of lung weights, siRNA vs siRNA+carboplatin treated tumors [5]
CC(=O)N[C@@H](CS)C(=O)O [NAC, N-acetyl cysteine]	85	75	significantly increased cell survival	significantly increased cell survival	–	–	–	–	–
N.N.O=C([O-])C1(C(=O)[O-])CCC1.[Pt+2] [carboplatin]	–	–	–	–	0.45	2.13	0.77	0.55	1.73
